# Experimental data from patent EP2951180B1, “2,6,7,8 SUBSTITUTED PURINES AS HDM2 INHIBITORS” (Merck Sharp & Dohme Corp., priority 2013, dated 2014).
# Target: T1, HDM2 (Homo sapiens, UniProt Q00987)
# T1 construct: Thioredoxin (N); made in house; host or cells: E. coli strain BL21(DE3)Rosetta
# Assay: HDM2 FRET assay (inhibition of binding of FITC labeled p53-pocket peptide to HDM2)
# Conditions: 0.5 nM HDM2 (residues 17 to 125), 3nM peptide, two hour incubation at room temperature; read-out: FRET IC50
# Method in brief: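 TR-FRET with 0.5 nM His-tagged recombinant HDM2, 3 nM FITC-labelled p53 peptide and 0.25 nM Tb-anti-His antibody in PBS, 0.01% BSA, 0.01% Tween-20, 0.1% DMSO. IC50 from em520/em495 ratio over 10-point dilutions, 4-parameter logistic fit.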
# T1 sequence (Q00987 17-125): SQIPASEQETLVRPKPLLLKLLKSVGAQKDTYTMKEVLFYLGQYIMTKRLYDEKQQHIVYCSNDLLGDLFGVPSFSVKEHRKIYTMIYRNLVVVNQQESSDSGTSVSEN
row,SMILES,IC50
1,"Cc1cccc(-c2nc3nc(C(=O)O)nc(OCC4CC4)c3n2Cc2ccc(C(F)(F)F)cc2)c1 [Example 17.2, 6-(cyclopropylmethoxy)-8-(3-methylphenyl)-7-[4-(trifluoromethyl)benzyl]-7H-purine-2-carboxylic acid]",814 nM
2,"Cc1cccc(-c2nc3nc(C(=O)O)nc(OCC4CCC4)c3n2Cc2ccc(C(F)(F)F)cc2)c1 [Example 17.3, 6-(cyclobutylmethoxy)-8-(3-methylphenyl)-7-[4-(trifluoromethyl)benzyl]-7H-purine-2-carboxylic acid]",192 nM

# Same assay, conditions: Table 17.2; read-out: FRET IC50
row,SMILES,IC50
1,"CC(=O)N1CCN(c2nc3nc(-c4noc(=O)[nH]4)nc(N[C@H](C)C4CCC4)c3n2C[C@H]2CC[C@H](C)CC2)[C@H](C)C1 [Example 17.9, 3-(8-((R)-4-acetyl-2-methylpiperazin-1-yl)-6-(((R)-1-cyclobutylethyl)amino)-7-((trans-4-methylcyclohexyl)methyl)-7H-purin-2-yl)-1,2,4-oxadiazol-5(4H)-one]",2.61 nM
2,"CC(=O)N1CCN(c2nc3nc(-c4noc(=O)[nH]4)nc(N[C@H](C)C4CCC4)c3n2C[C@H]2CC[C@H](C)CC2)[C@H](c2ccccc2)C1 [Example 17.10, 3-{8-[(2R)-4-acetyl-2-phenylpiperazin-1-yl]-6-{[(1R)-1-cyclobutylethyl]amino}-7-[(trans-4-methylcyclohexyl)methyl]-7H-purin-2-yl}-1,2,4-oxadiazol-5(4H)-one]",0.215 nM
3,"CC(=O)N1CCN(c2nc3nc(C(N)=O)nc(N[C@H](C)C4CCC4)c3n2C[C@H]2CC[C@H](C)CC2)[C@H](c2ccccc2)C1 [Example 17.11, 8-[(2R)-4-acetyl-2-phenylpiperazin-1-yl]-6-{[(1R)-1-cyclobutylethyl]amino}-7-[(trans-4-methylcyclohexyl)methyl]-7H-purine-2-carboxamide]",6.33 nM
4,"C[C@@H](Nc1nc(C(N)=O)nc2nc(N3CCN(S(C)(=O)=O)C[C@H]3c3ccccc3)n(C[C@H]3CC[C@H](C)CC3)c12)C1CCC1 [Example 17.12, 6-{[(1R)-1-cyclobutylethyl]amino}-7-[(trans-4-methylcyclohexyl)methyl]-8-[(2R)-4-(methylsulfonyl)-2-phenylpiperazin-1-yl]-7H-purine-2-carboxamide]",4.6 nM
5,"C[C@@H](Nc1nc(-c2noc(=O)[nH]2)nc2nc(N3CCN(S(C)(=O)=O)C[C@H]3c3ccccc3)n(C[C@H]3CC[C@H](C)CC3)c12)C1CCC1 [Example 17.13, 3-(6-{[(1R)-1-cyclobutylethyl]amino}-7-[(trans-4-methylcyclohexyl)methyl]-8-[(2R)-4-(methylsulfonyl)-2-phenylpiperazin-1-yl]-7H-purin-2-yl)-1,2,4-oxadiazol-5(4H)-one]",1.86 nM
6,"C[C@@H]1CN(S(C)(=O)=O)CCN1c1nc2nc(-c3noc(=O)[nH]3)nc(N[C@H](C)C3CCC3)c2n1C[C@H]1CC[C@H](C)CC1 [Example 17.14, 3-(6-{[(1R)-1-cyclobutylethyl]amino}-7-[(trans-4-methylcyclohexyl)methyl]-8-[(2R)-2-methyl-4-(methylsulfonyl)piperazin-1-yl]-7H-purin-2-yl)-1,2,4-oxadiazol-5(4H)-one]",4.93 nM
7,"C[C@@H]1CN(C(=O)C(C)(C)C)CCN1c1nc2nc(-c3noc(=O)[nH]3)nc(N[C@H](C)C3CCC3)c2n1C[C@H]1CC[C@H](C)CC1 [Example 17.15, 3-(6-{[(1R)-1-cyclobutylethyl]amino}-8-[(2R)-4-(2,2-dimethylpropanoyl)-2-methylpiperazin-1-yl]-7-[(trans-4-methylcyclohexyl)methyl]-7H-purin-2-yl)-1,2,4-oxadiazol-5(4H)-one]",4.3 nM
8,"C[C@@H]1CN(C(=O)C2CC2)CCN1c1nc2nc(-c3noc(=O)[nH]3)nc(N[C@H](C)C3CCC3)c2n1C[C@H]1CC[C@H](C)CC1 [Example 17.16, 3-(6-{[(1R)-1-cyclobutylethyl]amino}-8-[(2R)-4-(cyclopropylcarbonyl) -2-methylpiperazin-1-yl]-7-[(trans-4-methylcyclohexyl)methyl]-7H-purin-2-yl)-1,2,4-oxadiazol-5(4H)-one]",1.22 nM
